Laboratory results from article PMC11763059, “GENI as an AMPK Activator Binds α and γ Subunits and Improves the Memory Dysfunction of Alzheimer’s Disease Mouse Models via Autophagy and Neuroprotection” (Antioxidants, 2025).

Tested on: PC12 cells
Experiment: RT-PCR analysis of gene expression in PC12 cells
Assay type: cell-based, Rat
Conditions: PC12 cells under H2O2 induction
Protocol: RT-PCR analysis was performed as described in the material and methods section in Supplementary Information.
Supplementary information […]
1.1. Real-time polymerase chain reaction (RT-PCR) analysis
PC12 cells (2 × 106) were seeded in 60 mm dishes and treated with RES (10 μM) or GENI (3 or 10μM) for 24h. Total RNA was extracted with TRIzol Reagent (Beijing Cowin Biotech Company, Beijing, China). RNA content was determined using an Eppendorf Biophotometer Plus (Eppendorf Company, Hamburg, Germany). Transcription was performed using 5 μg of total RNA, Oligo (dT)20 primer and reverse transcriptase (Beijing Cowin Biotech Company, Beijing, China). Transcript levels were quantified by real-time PCR (AB SCIEX, Massachusetts, USA) and SYBR Premix EX Taq™ (Takara, Otsu, Japan). Primers (Sangon Biotech Co. Ltd., Shanghai, China) used in this study are given in Supplementary Table S3. The thermocycling parameters for PC12 cells were as follows: SOD1 and SOD2: 95 ℃ for 2 min, then 40 cycles, 54 ℃ for 35 seconds; Bcl-x1 and Nrf2: 95 ℃ for 2 min, then 40 cycles, 95 ℃ for 15 seconds, 60 ℃ […]
for 15 seconds, 68 ℃ for 20 seconds. All results were normalized to GAPDH RNA levels, and relative mRNA transcript levels were calculated using the ΔΔCt formula. […]
For NO content evaluation, firstly, the NO assay kit was removed, and Griess Reagents I and II were warmed to room temperature. The standard substance was diluted with cell culture solution to 0, 1, 2, 5, 10, 20, 40, 60 and 100 μM. Secondly, 50 μL of standard reagent and the diluted sample were added into a 96-well plate. […]
For IL-6 content evaluation, we prepared samples, standards and biotinylated antibody working […]
15.625 and 0 pg/mL for use, and blank holes were set. The 100 μL sample or standard substance of different concentrations was added to the corresponding hole, and about 50 μL of biotinylated antibody working liquid was added to the sample and standard substance hole. The reaction hole was sealed with sealing plate adhesive paper. The working liquid of the enzyme conjugate was prepared 30 min in advance by incubating at room temperature with a 300 rpm micro-oscillator for 120 min. The sample was placed at room temperature away from light, and the board was washed five times after incubation. In addition to the blank holes, 100 μL of enzyme conjugate working liquid was added to each hole, and the reaction holes were sealed with plate adhesive paper. The board was incubated at room temperature with a 300 rpm micro-oscillator for 60 min and then washed five times. […] About 100 μL of termination solution was added to each hole, and we measured the OD450 value immediately after mixing with a microplate reader (BioTek, California, USA).

## CC(C)CCOC(=O)C1=CO[C@@H](O[C@@H]2O[C@H](CO)[C@@H](O)[C@H](O)[C@H]2O)C2C(CO)=CCC12 (stereo partly shown) [GENI, Geniposidic 4-isoamyl ester]
  abundance of Bcl-x1 mRNA: significantly increased
  abundance of Nrf2 mRNA: significantly increased
GENI 3 or 10 μM 24 h
  gene expression of SOD1: increased
  gene expression of SOD2: increased
